Results as given in US20110038948A1, “Methods of Reducing the Production of Reactive Oxygen Species and Methods of Screening or Identifying Compounds and Compositions that Reduce the Production of Reactive Oxygen Species” (UNIVERSITY OF TENNESSEE RESEARCH FOUNDATION, priority 2005, published 2011).

Assays:
[1] = tested on: IL-6; experiment: IL-6 expression in 3T3-L1 adipocytes; format: cell-based, mouse
Protocol: 3T3-L1 pre-adipocytes were incubated at a density of 8000 cells/cm^2 (10 cm^2 dish) and grown in Dulbecco's modified Eagle's medium (DMEM) containing 10% FBS and antibiotics (adipocyte medium) at 37° C. in 5% CO2 in air. Confluent pre-adipocytes were induced to differentiate with a standard differentiation medium consisting of DMEM-F10 (1:1, vol/vol) medium supplemented with 1% fetal bovine serum (FBS), 1 μM dexamethasone, isobutylmethylxanthine (IBMX) (0.5 mM) and antibiotics (1% Penicillin-Streptomycin). Pre-adipocytes were maintained in this differentiation medium for 3 days and subsequently cultured in adipocyte medium. Cultures were re-fed every 2-3 days to allow 90% cells to reach fully differentiation before conducting chemical treatment.
Cells were incubated in serum free medium overnight before chemical treatment. Chemicals were freshly diluted in adipocyte medium before treatment. […] Cell viability was measured via trypan blue exclusion.
Adipocyte and muscle 18s, TNFα, IL-6, IL-8, IL-15 and adiponectin were quantitatively measured using a smart cycler real-time PCR system (Cepheid, Sunnyvale, Calif.) with a TaqMan 1000 Core Reagent Kit (Applied Biosystems, Branchburg, N.J.). […] Reactions of quantitative RT-PCR for standards and unknown samples were also performed according to the instructions of Smart Cycler System (Cepheid, Sunnyvale, Calif.) and TaqMan Real Time PCR Core Kit (Applied Biosystems, Branchburg, N.J.). The mRNA quantitation for each sample was further normalized using the corresponding 18s quantitation. […]
(§1) Adipocyte and muscle 18s, CD14, TNFα, MIP, M-CSF, IL-6 and MCP-1 were quantitatively measured using a Smart Cycler Real Time PCR System (Cepheid, Sunnyvale, Calif.) with a TaqMan 1000 Core Reagent Kit (Applied Biosystems, Branchburg, N.J.). […] Reactions of quantitative RT-PCR for standards and unknown samples were also performed according to the instructions of Smart Cycler System (Cepheid, Sunnyvale, Calif.) and TaqMan Real Time PCR Core Kit (Applied Biosystems, Branchburg, N.J.). […]

[2] = tested on: 3T3-L1 adipocytes; experiment: Cell proliferation / DNA synthesis in cultured adipocytes (CyQUANT); format: cell-based, mouse; conditions: 48 hours
Protocol: 3T3-L1 preadipocytes were incubated at a density of 8000 cells/cm^2 (10 cm^2 dish) and grown in Dulbecco's modified Eagle's medium (DMEM) containing 10% FBS and antibiotics (adipocyte medium) at 37° C. in 5% CO2 in air. Confluent preadipocytes were induced to differentiate with a standard differentiation medium consisting of DMEM-F10 (1:1, vol/vol) medium supplemented with 1% FBS, 1 μM dexamethasone, IBMX (0.5 mM) and antibiotics (1% Penicillin-Streptomycin). Preadipocytes were maintained in this differentiation medium for 3 days and subsequently cultured in adipocyte medium. Cultures were re-fed every 2-3 days to allow 90% of cells to reach full differentiation before conducting chemical treatment. Chemicals were freshly diluted in adipocyte medium before treatment. Cells were washed with fresh adipocyte medium, re-fed with medium containing the different treatments, and incubated at 37° C. in 5% CO2 in air before analysis. Cell viability was measured via trypan blue exclusion. Cells were plated in DMEM with different treatment in duplicate in 96-well plates. After 48 h, a CyQUANT Cell Proliferation Kit (Molecular Probes, Eugene, Oreg.) was used following the manufacturer's protocol. a microplate fluorometer (Packard Instrument Company, Inc., Downers Grove, Ill.) was used to measure CyQUANT fluorescence. Cell viability was determined by Trypan blue exclusion examination.

[3] = tested on: macrophage inhibitory factor (MIF); experiment: MIF expression in human adipocytes; format: cell-based; conditions: calcitriol 10 nmol/L, 48 hours; p=0.001
From the text: Cell culture: Human preadipocytes used in this study were supplied by Zen-Bio (Research Triangle, N.C.). Preadipocytes were inoculated in DMEM/Ham's F-10 medium (DMEM-F10) (1:1, vol/vol) containing 10% FBS, 15 mmol/L HEPES, and antibiotics at a density of 30,000 cells/cm2. Confluent monolayers of preadipocytes were induced to differentiate with a standard differentiation medium consisting of DMEM-F10 (1:1, vol/vol) medium supplemented with 15 mmol/L HEPES, 3% FBS, 33 μmol/L biotin, 17 μmol/L pantothenate, 100 nmol/L insulin, […] methylisobutylxanthine, 1 μmol/L dexamethasone, 1 μmol/L BRL49653, and antibiotics. […]
Cells were washed with fresh adipocyte medium, re-fed with medium containing the indicated treatments, and incubated at 37° C. in 5% CO2 for 48 hours before analysis. Cell viability was measured via trypan blue exclusion.
as §1

Row | Compound | increase in IL-6 expression ([1]; 100 nmol/L H2O2, 48 h, p<0.001) [%] | increase in total DNA of cultured cells ([2]; H2O2 100 nmol/L, p<0.001) [%] | effect on IL-6 expression ([1]; 10 nmol/L 1α, 25-(OH)2-D3, 48 h) | effect on IL-6 expression ([1]; calcitriol 10 nmol/L, 48 hours (Example 4)) | increase in MIF expression [3] [%] | effect on glucose induced DNA synthesis ([2]; compound plus glucose 30 mmol/L)
1 | OO [H2O2, hydrogen peroxide] | 167 | 39 |  |  |  | 
2 | C=C1/C(=C\C=C2/CCC[C@]3(C)[C@@H]([C@H](C)CCCC(C)(C)O)CC[C@@H]23)C[C@@H](O)C[C@@H]1O [calcitriol, 1,25-(OH)2-D3] |  |  | markedly increased | markedly stimulate | 59 | augmented
